Measured values published in patent US9340507B2, “Substituted 4-pyridones and their use as inhibitors of neutrophil elastase activity” (Boehringer Ingelheim International GmbH, priority 2012, dated 2016).

molecular target: Human neutrophil elastase (Homo sapiens (Human), UniProt P08246); assay: Human Neutrophil Elastase Assay; type: biochemical; settings: substrate MeOSuc-Ala-Ala-Pro-Val-AMC 250 μM, pH 7.5, fluorescence
Method: Human Neutrophil Elastase Assay
All other materials were of the highest grade commercially available.
The following buffers were used: Compound buffer: 100 mM Tris, 500 mM NaCl, adjusted to pH 7.5; Assay buffer: 100 mM Tris, 500 mM NaCl, adjusted to pH 7.5, containing 0.01% BSA.
Assay conditions: Test compounds were prediluted in DMSO and subsequently in compound buffer (5% DMSO final). […] After inactivation of the enzyme, fluorescence intensities were measured at 380 nm excitation and 460 nm emission wavelengths.
Each plate contains wells with a high value control (DMSO+enzyme+substrate) and wells with a low value control (DMSO+inactivated enzyme+substrate). IC50 values were estimated using a sigmoidal concentration response curve with variable slope. Means of low values were taken as 0%, means of high values as 100%. IC50 values of selected compound in the Neutrophil Elastase assay: […]

Sequence of Human neutrophil elastase (P08246 30-267): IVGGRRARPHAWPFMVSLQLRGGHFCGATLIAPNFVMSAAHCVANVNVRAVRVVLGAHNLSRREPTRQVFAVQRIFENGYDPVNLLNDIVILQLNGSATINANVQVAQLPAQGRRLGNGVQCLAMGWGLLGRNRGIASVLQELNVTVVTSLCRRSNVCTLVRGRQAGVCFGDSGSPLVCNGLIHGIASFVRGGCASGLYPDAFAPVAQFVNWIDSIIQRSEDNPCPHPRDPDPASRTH

| SMILES | IC50 [nM] |
| --- | --- |
| COCCn1cc(C(=O)NCc2ccc(S(C)(=O)=O)c[n+]2[O-])c(=O)c(-c2cccc(C(F)(F)F)c2)c1C [Example 16, 1-(2-Methoxy-ethyl)-6-methyl-4-oxo-5-(3-trifluoromethyl-phenyl)-1,4-dihydro-pyridine-3-carboxylic acid (5-methanesulfonyl-1-oxy-pyridin-2-ylmethyl)-amide] | 63 |
| Cc1c(-c2cccc(C(F)(F)F)c2)c(=O)c(C(=O)NCc2ccc(S(C)(=O)=O)cc2)cn1CCF [Example 45, 1-(2-Fluoro-ethyl)-6-methyl-4-oxo-5-(3-trifluoromethyl-phenyl)-1,4-dihydro-pyridine-3-carboxylic acid 4-methanesulfonyl-benzylamide] | 34 |
| Cc1c(-c2cccc(C(F)F)c2)c(=O)c(C(=O)NCc2ccc(S(C)(=O)=O)c(F)c2)cn1C(C)C [Example 33, 5-(3-Difluoromethyl-phenyl)-1-isopropyl-6-methyl-4-oxo-1,4-dihydro-pyridine-3-carboxylic acid 3-fluoro-4-methanesulfonyl-benzylamide] | 16 |
| Cc1c(-c2cccc(C(F)(F)F)c2)c(=O)c(C(=O)NCc2ccc(S(C)(=O)=O)cc2)cn1C1CC1 [Example 6, 1-Cyclopropyl-6-methyl-4-oxo-5-(3-trifluoromethyl-phenyl)-1,4-dihydro-pyridine-3-carboxylic acid 4-methanesulfonyl-benzylamide] | 30 |
| CC[C@@H](C)n1cc(C(=O)NCc2ccc(S(C)(=O)=O)cn2)c(=O)c(-c2cccc(C(F)F)c2)c1C [Example 19.2, (R)-1-sec-Butyl-5-(3-difluoromethyl-phenyl)-6-methyl-4-oxo-1,4-dihydro-pyridine-3-carboxylic acid (5-methanesulfonyl-pyridin-2-ylmethyl)-amide] | 10 |
| Cc1nnc(CNC(=O)c2cn(C3CCC3)c(C)c(-c3cccc(C(F)(F)F)c3)c2=O)o1 [Example 24.1, 1-Cyclobutyl-6-methyl-4-oxo-5-(3-trifluoromethyl-phenyl)-1,4-dihydro-pyridine-3-carboxylic acid (5-methyl-[1,3,4]oxadiazol-2-ylmethyl)-amide] | 57 |
| Cc1cc(CNC(=O)c2cn(C(C)C)c(C)c(-c3ccnc(C(F)(F)F)c3)c2=O)ccc1S(C)(=O)=O [Example 28.3, 1-Isopropyl-2-methyl-4-oxo-2′-trifluoromethyl-1,4-dihydro-[3,4]bipyridinyl-5-carboxylic acid 4-methanesulfonyl-3-methyl-benzylamide] | 27 |
| Cc1c(-c2cccc(C(F)(F)F)c2)c(=O)c(C(=O)NCc2ccc(S(C)(=O)=O)c(F)c2)cn1C(C)C [Example 32, 1-Isopropyl-6-methyl-4-oxo-5-(3-trifluoromethyl-phenyl)-1,4-dihydro-pyridine-3-carboxylic acid 3-fluoro-4-methanesulfonyl-benzylamide] | 15 |
| Cc1c(-c2cccc(C(F)(F)F)c2)c(=O)c(C(=O)NCc2ccc(S(C)(=O)=O)cc2)cn1C(C)C [Example 1.2, 1-isopropyl-6-methyl-4-oxo-5-(3-trifluoromethyl-phenyl)-1,4-dihydro-pyridine-3-carboxylic acid 4-methanesulfonyl-benzylamide] | 12 |
| Cc1c(-c2cccc(C(F)F)c2)c(=O)c(C(=O)NCc2ccc(S(N)(=O)=O)cc2)cn1C(C)C [Example 4.10] | 42 |
| Cc1c(-c2cccc(C(F)F)c2)c(=O)c(C(=O)NCc2ccc(N3CCNC3=O)cc2)cn1C(C)C [Example 4.12] | 69 |
| COC[C@H](C)n1cc(C(=O)NCc2ccc(S(C)(=O)=O)cc2)c(=O)c(-c2cccc(C(F)F)c2)c1C [Example 42, (S)-5-(3-Difluoromethyl-phenyl)-1-(2-methoxy-1-methyl-ethyl)-6-methyl-4-oxo-1,4-dihydro-pyridine-3-carboxylic acid 4-methanesulfonyl-benzylamide] | 8.1 |
| CCC(CC)n1cc(C(=O)NCc2ccc(S(C)(=O)=O)cc2)c(=O)c(-c2ccnc(C(F)(F)F)c2)c1C [Example 15.3, 1-(1-Ethyl-propyl)-2-methyl-4-oxo-2′-trifluoromethyl-1,4-dihydro-[3,4]bipyridinyl-5-carboxylic acid 4-methanesulfonyl-benzylamide] | 24 |
| Cc1c(-c2cccc(C(F)F)c2)c(=O)c(C(=O)NCc2ccc(S(C)(=O)=O)cc2)cn1C1CCCC1 [Example 9.2, 1-Cyclopentyl-5-(3-difluoromethyl-phenyl)-6-methyl-4-oxo-1,4-dihydro-pyridine-3-carboxylic acid 4-methanesulfonyl-benzylamide] | 18 |
| Cc1c(-c2cccc(C(F)(F)F)c2)c(=O)c(C(=O)NCc2ccc(S(C)(=O)=O)cc2)cn1CC1CC1(F)F (stereo not shown) [Example 1.7] | 37 |
| Cc1c(-c2cccc(C(F)(F)F)c2)c(=O)c(C(=O)NCc2ccc3c(c2)CCS3(=O)=O)cn1C(C)C [Example 29.1, 1-Isopropyl-6-methyl-4-oxo-5-(3-trifluoromethyl-phenyl)-1,4-dihydro-pyridine-3-carboxylic acid (1,1-dioxo-2,3-dihydro-1H-1λ^6-benzo[b]thiophen-5-ylmethyl)-amide] | 4 |

| SMILES | IC50 [nM] |
| --- | --- |
| Cc1c(-c2ccc(F)c(C(F)(F)F)c2)c(=O)c(C(=O)NCc2ccc(S(C)(=O)=O)cc2)cn1C(C)C [Example 5.2] | 19 |
| Cc1cc(CNC(=O)c2cn(C(C)C)c(C)c(-c3cccc(C(F)(F)F)c3)c2=O)ccc1S(C)(=O)=O [Example 28.1, 1-Isopropyl-6-methyl-4-oxo-5-(3-trifluoromethyl-phenyl)-1,4-dihydro-pyridine-3-carboxylic acid 4-methanesulfonyl-3-methyl-benzylamide] | 7 |
| Cc1cc(S(C)(=O)=O)ccc1CNC(=O)c1cn(C(C)C)c(C)c(-c2cccc(C(F)F)c2)c1=O [Example 37, 5-(3-Difluoromethyl-phenyl)-1-isopropyl-6-methyl-4-oxo-1,4-dihydro-pyridine-3-carboxylic acid 4-methanesulfonyl-2-methyl-benzylamide] | 27 |
| Cc1c(-c2cccc(C(F)F)c2)c(=O)c(C(=O)NCc2cccnn2)cn1C(C)C [Example 4.1] | 98 |
| Cc1nnc(CNC(=O)c2cn(C3CCCC3)c(C)c(-c3cccc(C(F)F)c3)c2=O)o1 [Example 9.1, 1-Cyclopentyl-5-(3-difluoromethyl-phenyl)-6-methyl-4-oxo-1,4-dihydro-pyridine-3-carboxylic acid (5-methyl-[1,3,4]oxadiazol-2-ylmethyl)-amide] | 28 |
| Cc1c(-c2cccc(C(F)(F)F)c2)c(=O)c(C(=O)NCc2ccc(S(N)(=O)=O)cc2)cn1C(C)C [Example 3.7] | 40 |
| CC[C@H](C)n1cc(C(=O)NCc2ccc(S(C)(=O)=O)cc2)c(=O)c(-c2cccc(C(F)(F)F)c2)c1C [Example 12.1, (S)-1-sec-Butyl-6-methyl-4-oxo-5-(3-trifluoromethyl-phenyl)-1,4-dihydro-pyridine-3-carboxylic acid 4-methanesulfonyl-benzylamide] | 9 |
| CC[C@H](C)n1cc(C(=O)NCc2ccc(S(C)(=O)=O)cn2)c(=O)c(-c2ccnc(C(F)(F)F)c2)c1C [Example 20.3, (S)-1-sec-Butyl-2-methyl-4-oxo-2′-trifluoromethyl-1,4-dihydro-[3,4]bipyridinyl-5-carboxylic acid (5-methanesulfonyl-pyridin-2-ylmethyl)-amide] | 63 |
| CCC(CC)n1cc(C(=O)NCc2ccc(S(C)(=O)=O)cn2)c(=O)c(-c2cccc(C(F)F)c2)c1C [Example 23.2, 5-(3-Difluoromethyl-phenyl)-1-(1-ethyl-propyl)-6-methyl-4-oxo-1,4-dihydro-pyridine-3-carboxylic acid (5-methanesulfonyl-pyridin-2-ylmethyl)-amide] | 5 |
| Cc1c(-c2cccc(C(F)F)c2)c(=O)c(C(=O)NCc2ccc(C#N)cc2)cn1C(C)C [Example 4.5] | 51 |
| Cc1c(-c2cccc(C(F)(F)F)c2)c(=O)c(C(=O)NCc2cnn(C)c2)cn1C(C)C [Example 3.4] | 62 |
| CCC(CC)n1cc(C(=O)NCc2ccc(S(C)(=O)=O)cc2)c(=O)c(-c2cccc(C(F)F)c2)c1C [Example 15.2, 5-(3-Difluoromethyl-phenyl)-1-(1-ethyl-propyl)-6-methyl-4-oxo-1,4-dihydro-pyridine-3-carboxylic acid 4-methanesulfonyl-benzylamide] | 8 |
| CC[C@H](C)n1cc(C(=O)NCc2ccc(S(C)(=O)=O)cc2)c(=O)c(-c2cccc(C(F)F)c2)c1C [Example 12.2, (S)-1-sec-Butyl-5-(3-difluoromethyl-phenyl)-6-methyl-4-oxo-1,4-dihydro-pyridine-3-carboxylic acid 4-methanesulfonyl-benzylamide] | 12 |
| Cc1c(-c2cccc(C(F)F)c2)c(=O)c(C(=O)NCc2ccc3c(c2)CCS3(=O)=O)cn1C(C)C [Example 29.2, 5-(3-Difluoromethyl-phenyl)-1-isopropyl-6-methyl-4-oxo-1,4-dihydro-pyridine-3-carboxylic acid (1,1-dioxo-2,3-dihydro-1H-1λ^6-benzo[b]thiophen-5-ylmethyl)-amide] | 3 |
| Cc1c(-c2cccc(C(F)(F)F)c2)c(=O)c(C(=O)NCc2ccc(S(C)(=O)=O)cn2)cn1C1CCC1 [Example 18.1, 1-Cyclobutyl-6-methyl-4-oxo-5-(3-trifluoromethyl-phenyl)-1,4-dihydro-pyridine-3-carboxylic acid (5-methanesulfonyl-pyridin-2-ylmethyl)-amide] | 32 |
